Results on 1 compound are retold here after paper PMC4886280 (The Journal of General Physiology, 2016).

Molecules are shown by their SMILES.

For the assay, the target named is T1, P2X7 (Homo sapiens, UniProt Q99572).
T1 sequence (Q99572 1-595): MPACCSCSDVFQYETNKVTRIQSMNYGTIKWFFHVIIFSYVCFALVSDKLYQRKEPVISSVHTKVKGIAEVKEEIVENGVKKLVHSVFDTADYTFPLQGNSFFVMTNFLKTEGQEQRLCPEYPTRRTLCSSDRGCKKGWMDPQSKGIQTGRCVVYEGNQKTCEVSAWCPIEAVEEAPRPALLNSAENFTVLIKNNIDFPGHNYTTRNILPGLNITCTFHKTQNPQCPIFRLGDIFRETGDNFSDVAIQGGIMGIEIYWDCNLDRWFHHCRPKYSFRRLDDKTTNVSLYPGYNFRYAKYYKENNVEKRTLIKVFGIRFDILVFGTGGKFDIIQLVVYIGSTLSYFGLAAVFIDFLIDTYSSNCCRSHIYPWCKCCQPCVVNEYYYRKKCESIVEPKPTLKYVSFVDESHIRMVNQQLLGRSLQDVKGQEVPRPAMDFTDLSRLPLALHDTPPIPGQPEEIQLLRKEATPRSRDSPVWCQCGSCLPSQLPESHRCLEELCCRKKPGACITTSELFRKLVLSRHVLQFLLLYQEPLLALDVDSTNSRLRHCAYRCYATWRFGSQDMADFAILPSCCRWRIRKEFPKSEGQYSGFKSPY
Description: whole-cell patch clamp, ATP concentration-response in low-DIC bath. It counts as cell-based.

Compound `Nc1ncnc2c1ncn2[C@@H]1O[C@H](COP(=O)(O)OP(=O)(O)OP(=O)(O)O)[C@@H](O)[C@H]1O` [ATP] came in with an EC50 of 339 ± 27 µM.
